# Data: PMC9186362, “Design and biological evaluation of substituted 5,7-dihydro-6H-indolo[2,3-c]quinolin-6-one as novel selective Haspin inhibitors” (Journal of Enzyme Inhibition and Medicinal Chemistry, 2022)
# Columns and labels:
# Assay in all cases: SelectScreen ZLYTE
# Type in all cases: biochemical
# AMPK (A1/B2/G2) = AMPK (A1/B2/G2) (Homo sapiens, UniProt Q13131); details: ATP Km, read-out: Percentage of inhibition
# In short: (§1)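 Percent inhibition values come from a one-concentration (1 μM) profiling run covering a wide set of kinases.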
# DYRK1A = target: T1, DYRK1A (Homo sapiens, UniProt Q13627); details: ATP Km, read-out: Percentage of inhibition
# T1 construct: purchased Life Technologies
# In short: as §1
# MAPK9 (JNK2) = target: T2, MAPK9 (JNK2) (Homo sapiens, UniProt P45984); details: ATP 100 µM, read-out: Percentage of inhibition
# T2 construct: purchased Life Technologies (SelectScreen service)
# In short: as §1
# GRK5 = target: T3, GRK5 (Homo sapiens, UniProt P34947); details: ATP Km, read-out: Percentage of inhibition
# T3 construct: purchased Life Technologies (SelectScreen Whole Panel service)
# In short: as §1
# AMPK A1/B1/G1 = target: T4, AMPK A1/B1/G1 (Homo sapiens, UniProt Q13131); details: ATP Km, read-out: Percentage of inhibition
# T4 construct: purchased Life Technologies (SelectScreen Whole Panel service)
# In short: as §1
# CSK = target: T5, CSK (Homo sapiens, UniProt P41240); details: ATP Km, read-out: Percentage of inhibition
# T5 construct: purchased Life Technologies (SelectScreen)
# T5 sequence (P41240 whole entry): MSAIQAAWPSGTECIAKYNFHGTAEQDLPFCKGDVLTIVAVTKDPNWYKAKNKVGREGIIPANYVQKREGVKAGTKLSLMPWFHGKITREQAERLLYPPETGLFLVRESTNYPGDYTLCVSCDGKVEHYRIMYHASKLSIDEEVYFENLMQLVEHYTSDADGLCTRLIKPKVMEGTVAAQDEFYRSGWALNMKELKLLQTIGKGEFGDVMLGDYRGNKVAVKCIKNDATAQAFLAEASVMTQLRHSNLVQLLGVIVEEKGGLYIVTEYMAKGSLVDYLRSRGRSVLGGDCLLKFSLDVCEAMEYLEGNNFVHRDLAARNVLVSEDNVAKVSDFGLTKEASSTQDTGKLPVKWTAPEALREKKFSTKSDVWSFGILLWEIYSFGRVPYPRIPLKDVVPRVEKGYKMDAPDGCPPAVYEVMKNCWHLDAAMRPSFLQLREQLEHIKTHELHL
# In short: as §1
# AKT2 (PKB beta) = AKT2 (PKB beta) (Homo sapiens, UniProt P31751); details: ATP Km, read-out: Percentage of inhibition
# In short: as §1
# GRK4 = target: T6, GRK4 (Homo sapiens, UniProt P32298); details: ATP Km, read-out: Percentage of inhibition
# T6 construct: purchased Life Technologies
# In short: as §1
# STK22B (TSSK2) = target: T7, STK22B (TSSK2) (Homo sapiens, UniProt Q96PF2); details: ATP Km, read-out: Percentage of inhibition
# T7 construct: purchased Life Technologies
# In short: as §1
# NEK1 = target: T8, NEK1 (Homo sapiens, UniProt Q96PY6); details: ATP Km, read-out: Percentage of inhibition
# T8 construct: purchased Life Technologies (SelectScreen Whole Panel service)
# T8 sequence (Q96PY6 whole entry): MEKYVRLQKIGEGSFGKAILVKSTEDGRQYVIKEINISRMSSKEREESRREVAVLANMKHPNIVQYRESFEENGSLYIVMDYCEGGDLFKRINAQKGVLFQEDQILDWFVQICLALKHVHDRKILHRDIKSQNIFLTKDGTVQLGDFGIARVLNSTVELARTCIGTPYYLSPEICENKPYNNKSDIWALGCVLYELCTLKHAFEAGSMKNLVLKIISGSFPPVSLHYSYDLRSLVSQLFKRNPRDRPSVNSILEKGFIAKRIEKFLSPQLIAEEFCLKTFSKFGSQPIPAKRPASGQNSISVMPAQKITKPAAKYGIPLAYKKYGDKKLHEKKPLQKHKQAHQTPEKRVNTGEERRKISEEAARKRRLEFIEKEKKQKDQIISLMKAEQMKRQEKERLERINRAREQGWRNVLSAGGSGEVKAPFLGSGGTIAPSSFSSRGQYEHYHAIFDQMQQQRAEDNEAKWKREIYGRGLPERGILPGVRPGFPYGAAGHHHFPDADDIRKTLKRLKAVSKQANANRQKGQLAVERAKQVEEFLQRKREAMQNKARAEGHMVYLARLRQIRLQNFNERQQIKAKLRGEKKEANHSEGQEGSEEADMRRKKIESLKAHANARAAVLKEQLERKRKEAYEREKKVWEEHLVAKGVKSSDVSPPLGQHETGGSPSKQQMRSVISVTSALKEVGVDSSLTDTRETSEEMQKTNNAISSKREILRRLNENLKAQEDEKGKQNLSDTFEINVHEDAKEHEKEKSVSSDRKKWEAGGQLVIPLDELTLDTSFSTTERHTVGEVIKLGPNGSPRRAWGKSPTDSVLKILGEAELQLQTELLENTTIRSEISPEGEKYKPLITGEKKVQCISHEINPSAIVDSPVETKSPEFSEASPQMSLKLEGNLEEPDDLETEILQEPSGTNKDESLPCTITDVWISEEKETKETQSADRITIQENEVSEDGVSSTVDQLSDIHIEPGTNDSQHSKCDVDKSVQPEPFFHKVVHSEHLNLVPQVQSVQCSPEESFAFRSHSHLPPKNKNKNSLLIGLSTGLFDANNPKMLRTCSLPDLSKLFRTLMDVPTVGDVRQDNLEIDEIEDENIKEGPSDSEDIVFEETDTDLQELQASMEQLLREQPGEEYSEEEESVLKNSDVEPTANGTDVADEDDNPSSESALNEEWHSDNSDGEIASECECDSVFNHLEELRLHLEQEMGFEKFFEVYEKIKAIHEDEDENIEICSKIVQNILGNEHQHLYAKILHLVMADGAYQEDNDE
# In short: as §1
# CDKL5 = target: T9, CDKL5 (Homo sapiens, UniProt O76039); details: ATP Km, read-out: Percentage of inhibition
# T9 construct: purchased Life Technologies
# In short: as §1
# CSNK1A1 (CK1 alpha 1) = target: T10, CSNK1A1 (CK1 alpha 1) (Homo sapiens, UniProt P48729); details: ATP Km, read-out: Percentage of inhibition
# T10 construct: purchased Life Technologies (SelectScreen Whole Panel)
# T10 sequence (P48729 whole entry): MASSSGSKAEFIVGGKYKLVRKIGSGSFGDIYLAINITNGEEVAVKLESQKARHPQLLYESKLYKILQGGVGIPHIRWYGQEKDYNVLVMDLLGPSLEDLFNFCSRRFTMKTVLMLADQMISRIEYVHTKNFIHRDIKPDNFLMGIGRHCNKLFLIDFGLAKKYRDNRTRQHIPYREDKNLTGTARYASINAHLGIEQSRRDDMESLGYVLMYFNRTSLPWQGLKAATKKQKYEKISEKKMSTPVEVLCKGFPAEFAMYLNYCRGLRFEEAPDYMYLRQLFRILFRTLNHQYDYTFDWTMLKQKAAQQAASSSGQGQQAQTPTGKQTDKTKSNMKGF
# In short: as §1
# ABL1 F317I = ABL1 F317I (Homo sapiens, UniProt P00519, F317I); details: ATP Km, read-out: Percentage of inhibition
# In short: as §1
# MATK (HYL) = target: T11, MATK (HYL) (Homo sapiens, UniProt P42679); details: ATP Km, read-out: Percentage of inhibition
# T11 construct: purchased Life Technologies (SelectScreen Whole Panel service)
# In short: as §1
# CSNK1G2 (CK1 gamma 2) = target: T12, CSNK1G2 (CK1 gamma 2) (Homo sapiens, UniProt P78368); details: ATP Km, read-out: Percentage of inhibition
# T12 construct: purchased Life Technologies
# T12 sequence (P78368 whole entry): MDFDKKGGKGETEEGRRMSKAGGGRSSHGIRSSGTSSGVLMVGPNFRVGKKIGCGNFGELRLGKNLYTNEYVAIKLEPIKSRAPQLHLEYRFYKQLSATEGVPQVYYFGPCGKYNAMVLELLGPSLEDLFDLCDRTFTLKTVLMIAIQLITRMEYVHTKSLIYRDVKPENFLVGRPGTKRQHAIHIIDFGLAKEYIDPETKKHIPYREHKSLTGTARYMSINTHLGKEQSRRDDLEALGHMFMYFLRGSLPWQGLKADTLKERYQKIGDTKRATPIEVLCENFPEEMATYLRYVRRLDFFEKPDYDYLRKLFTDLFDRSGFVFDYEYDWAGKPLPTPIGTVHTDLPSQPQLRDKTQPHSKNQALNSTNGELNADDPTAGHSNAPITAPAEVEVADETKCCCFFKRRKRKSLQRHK
# In short: as §1
# CLK2 = target: T13, CLK2 (Homo sapiens, UniProt P49760); details: ATP Km, read-out: Percentage of inhibition
# T13 construct: purchased Life Technologies
# T13 sequence (P49760 whole entry): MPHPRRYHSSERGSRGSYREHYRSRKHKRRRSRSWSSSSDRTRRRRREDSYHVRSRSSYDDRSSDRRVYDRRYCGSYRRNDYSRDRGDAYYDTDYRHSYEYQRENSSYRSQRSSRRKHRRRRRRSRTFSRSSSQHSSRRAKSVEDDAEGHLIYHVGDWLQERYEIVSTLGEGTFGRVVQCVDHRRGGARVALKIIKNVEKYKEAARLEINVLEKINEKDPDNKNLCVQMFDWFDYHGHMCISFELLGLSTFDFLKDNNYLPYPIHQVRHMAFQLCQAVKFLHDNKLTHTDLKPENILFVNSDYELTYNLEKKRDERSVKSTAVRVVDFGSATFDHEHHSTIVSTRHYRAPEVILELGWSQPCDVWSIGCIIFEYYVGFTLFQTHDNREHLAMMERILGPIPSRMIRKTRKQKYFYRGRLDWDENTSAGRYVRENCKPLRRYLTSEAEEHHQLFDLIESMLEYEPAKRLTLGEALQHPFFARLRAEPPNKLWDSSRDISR
# In short: as §1
# SRMS (Srm) = target: T14, SRMS (Srm) (Homo sapiens, UniProt Q9H3Y6); details: ATP Km, read-out: Percentage of inhibition
# T14 construct: purchased Life Technologies (SelectScreen Whole Panel service)
# In short: as §1
# MYLK2 (skMLCK) = MYLK2 (skMLCK) (Homo sapiens, UniProt Q9H1R3); details: ATP Km, read-out: Percentage of inhibition
# In short: as §1
# MAP4K4 (HGK) = target: T15, MAP4K4 (HGK) (Homo sapiens, UniProt O95819); details: ATP Km, read-out: Percentage of inhibition
# T15 construct: purchased Life Technologies (SelectScreen service)
# T15 sequence (O95819 whole entry): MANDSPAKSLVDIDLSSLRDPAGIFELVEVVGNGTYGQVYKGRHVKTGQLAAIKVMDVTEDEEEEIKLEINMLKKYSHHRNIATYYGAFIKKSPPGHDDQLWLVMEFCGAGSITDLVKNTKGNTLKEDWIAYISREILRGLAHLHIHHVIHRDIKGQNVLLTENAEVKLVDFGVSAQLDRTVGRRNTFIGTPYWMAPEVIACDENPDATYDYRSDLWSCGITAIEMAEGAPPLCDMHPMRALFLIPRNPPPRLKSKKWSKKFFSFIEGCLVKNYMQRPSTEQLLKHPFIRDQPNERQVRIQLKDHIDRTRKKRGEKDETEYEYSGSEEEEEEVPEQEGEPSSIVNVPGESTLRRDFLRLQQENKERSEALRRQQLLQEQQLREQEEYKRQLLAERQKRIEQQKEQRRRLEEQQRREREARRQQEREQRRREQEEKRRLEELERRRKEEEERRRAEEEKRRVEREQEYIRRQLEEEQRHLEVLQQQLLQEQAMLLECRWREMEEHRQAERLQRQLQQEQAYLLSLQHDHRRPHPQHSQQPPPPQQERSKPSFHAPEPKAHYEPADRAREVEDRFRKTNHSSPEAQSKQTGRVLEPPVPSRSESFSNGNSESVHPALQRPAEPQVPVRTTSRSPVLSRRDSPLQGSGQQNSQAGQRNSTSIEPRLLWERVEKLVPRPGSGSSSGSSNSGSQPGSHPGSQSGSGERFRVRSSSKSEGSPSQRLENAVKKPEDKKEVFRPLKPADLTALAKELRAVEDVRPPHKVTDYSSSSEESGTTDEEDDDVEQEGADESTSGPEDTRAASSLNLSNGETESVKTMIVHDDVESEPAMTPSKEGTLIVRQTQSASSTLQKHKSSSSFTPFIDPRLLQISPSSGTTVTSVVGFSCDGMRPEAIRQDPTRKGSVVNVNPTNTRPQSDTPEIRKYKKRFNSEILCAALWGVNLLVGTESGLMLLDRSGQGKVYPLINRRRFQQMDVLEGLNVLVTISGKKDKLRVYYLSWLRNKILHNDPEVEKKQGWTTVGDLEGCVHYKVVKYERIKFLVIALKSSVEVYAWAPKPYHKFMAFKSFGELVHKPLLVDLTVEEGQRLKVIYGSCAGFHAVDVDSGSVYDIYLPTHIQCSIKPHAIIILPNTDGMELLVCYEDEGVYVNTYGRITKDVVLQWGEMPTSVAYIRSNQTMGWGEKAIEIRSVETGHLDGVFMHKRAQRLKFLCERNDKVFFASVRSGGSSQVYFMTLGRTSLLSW
# In short: as §1
# MAP2K2 (MEK2) = target: T16, MAP2K2 (MEK2) (Homo sapiens, UniProt P36507); details: ATP 100 µM, read-out: Percentage of inhibition
# T16 construct: purchased Life Technologies
# In short: as §1
# PLK1 = target: T17, PLK1 (Homo sapiens, UniProt P53350); details: ATP Km, read-out: Percentage of inhibition
# T17 construct: purchased Life Technologies (SelectScreen Whole Panel service)
# T17 sequence (P53350 whole entry): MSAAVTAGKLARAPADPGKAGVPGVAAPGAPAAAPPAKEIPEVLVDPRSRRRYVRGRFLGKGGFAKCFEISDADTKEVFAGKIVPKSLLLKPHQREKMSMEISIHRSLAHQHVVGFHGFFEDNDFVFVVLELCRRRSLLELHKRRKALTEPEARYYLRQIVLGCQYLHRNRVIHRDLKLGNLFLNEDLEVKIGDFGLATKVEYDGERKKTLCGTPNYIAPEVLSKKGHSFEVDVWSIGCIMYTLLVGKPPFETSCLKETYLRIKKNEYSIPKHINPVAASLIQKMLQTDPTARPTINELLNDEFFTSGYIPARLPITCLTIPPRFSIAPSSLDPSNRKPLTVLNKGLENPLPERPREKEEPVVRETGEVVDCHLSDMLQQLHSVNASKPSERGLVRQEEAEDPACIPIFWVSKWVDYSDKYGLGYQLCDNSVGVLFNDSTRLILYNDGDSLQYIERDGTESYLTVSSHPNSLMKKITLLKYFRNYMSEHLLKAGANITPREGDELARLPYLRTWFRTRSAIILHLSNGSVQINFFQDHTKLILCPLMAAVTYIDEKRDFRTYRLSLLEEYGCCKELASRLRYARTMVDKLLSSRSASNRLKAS
# In short: as §1
# RPS6KA6 (RSK4) = target: T18, RPS6KA6 (RSK4) (Homo sapiens, UniProt Q9UK32); details: ATP Km, read-out: Percentage of inhibition
# T18 construct: purchased Life Technologies
# In short: as §1
# ABL1 G250E = target: T19, ABL1 G250E (Homo sapiens, UniProt P00519, G250E); details: ATP Km, read-out: Percentage of inhibition
# T19 construct: purchased Life Technologies (SelectScreen Whole Panel service)
# In short: as §1
# ABL2 (Arg) = target: T20, ABL2 (Arg) (Homo sapiens, UniProt P42684); details: ATP Km, read-out: Percentage of inhibition
# T20 construct: purchased Life Technologies (SelectScreen service)
# In short: as §1
# PTK6 (Brk) = PTK6 (Brk) (Homo sapiens, UniProt Q13882); details: ATP Km, read-out: Percentage of inhibition
# In short: as §1
# MAP3K9 (MLK1) = MAP3K9 (MLK1) (Homo sapiens, UniProt P80192); details: ATP Km, read-out: Percentage of inhibition
# In short: as §1
# CDC42 BPA (MRCKA) = CDC42 BPA (MRCKA) (Homo sapiens, UniProt Q5VT25); details: ATP Km, read-out: Percentage of inhibition
# In short: as §1
# MAP3K8 (COT) = target: T21, MAP3K8 (COT) (Homo sapiens, UniProt P41279); details: ATP 100 µM, read-out: Percentage of inhibition
# T21 construct: purchased Life Technologies (SelectScreen service)
# In short: as §1
# CHEK2 (CHK2) = target: T22, CHEK2 (CHK2) (Homo sapiens, UniProt O96017); details: ATP Km, read-out: Percentage of inhibition
# T22 construct: purchased Life Technologies
# In short: as §1
# EGFR (ErbB1) G719S = target: T23, EGFR (ErbB1) G719S (Homo sapiens, UniProt P00533, G719S); details: ATP Km, read-out: Percentage of inhibition
# T23 construct: purchased Life Technologies (SelectScreen Whole Panel service)
# In short: as §1
# PRKCE (PKC epsilon) = target: T24, PRKCE (PKC epsilon) (Homo sapiens, UniProt Q02156); details: ATP Km, read-out: Percentage of inhibition
# T24 construct: purchased Life Technologies (SelectScreen Whole Panel service)
# In short: as §1
# SRPK2 = SRPK2 (Homo sapiens, UniProt P78362); details: ATP Km, read-out: Percentage of inhibition
# In short: as §1
# ABL1 T315I = target: T25, ABL1 T315I (Homo sapiens, UniProt P00519, T315I); details: ATP Km, read-out: Percentage of inhibition
# T25 construct: purchased Life Technologies (SelectScreen service)
# In short: as §1
# CAMK1D (CaMKI delta) = target: T26, CAMK1D (CaMKI delta) (Homo sapiens, UniProt Q8IU85); details: ATP Km, read-out: Percentage of inhibition
# T26 construct: purchased Life Technologies (SelectScreen)
# In short: as §1
# YES1 = YES1 (Homo sapiens, UniProt P07947); details: ATP Km, read-out: Percentage of inhibition
# In short: as §1
# PRKCG (PKC gamma) = PRKCG (PKC gamma) (Homo sapiens, UniProt P05129); details: ATP Km, read-out: Percentage of inhibition
# In short: as §1
# STK25 (YSK1) = target: T27, STK25 (YSK1) (Homo sapiens, UniProt O00506); details: ATP Km, read-out: Percentage of inhibition
# T27 construct: purchased Life Technologies (SelectScreen Whole Panel service)
# In short: as §1
# DCAMKL2 (DCK2) = DCAMKL2 (DCK2) (Homo sapiens, UniProt Q8N568); details: ATP Km, read-out: Percentage of inhibition
# In short: as §1
compound,measurement,setting,value
"COc1ccc2[nH]c3c(=O)[nH]c4ccc(O)cc4c3c2c1 [Compound 55, 2-Hydroxy-10-methoxy-5,7-dihydro-6H-indolo[2,3-c]quinolin-6-one]",inhibition at 1 µM,AMPK (A1/B2/G2),67%
same,inhibition at 1 µM,DYRK1A,96%
same,inhibition at 1 µM,MAPK9 (JNK2),12%
same,inhibition at 1 µM,GRK5,18%
same,inhibition at 1 µM,AMPK A1/B1/G1,47%
same,inhibition at 1 µM,CSK,9%
same,inhibition at 1 µM,AKT2 (PKB beta),6%
same,inhibition at 1 µM,GRK4,42%
same,inhibition at 1 µM,STK22B (TSSK2),5%
same,inhibition at 1 µM,NEK1,17%
same,inhibition at 1 µM,CDKL5,5%
same,inhibition at 1 µM,CSNK1A1 (CK1 alpha 1),51%
same,inhibition at 1 µM,ABL1 F317I,14%
same,inhibition at 1 µM,MATK (HYL),11%
same,inhibition at 1 µM,CSNK1G2 (CK1 gamma 2),33%
same,inhibition at 1 µM,CLK2,97%
same,inhibition at 1 µM,SRMS (Srm),16%
same,inhibition at 1 µM,MYLK2 (skMLCK),61%
same,inhibition at 1 µM,MAP4K4 (HGK),81%
same,inhibition at 1 µM,MAP2K2 (MEK2),87%
same,inhibition at 1 µM,PLK1,10%
same,inhibition at 1 µM,RPS6KA6 (RSK4),93%
same,inhibition at 1 µM,ABL1 G250E,48%
same,inhibition at 1 µM,ABL2 (Arg),24%
same,inhibition at 1 µM,PTK6 (Brk),19%
same,inhibition at 1 µM,MAP3K9 (MLK1),63%
same,inhibition at 1 µM,CDC42 BPA (MRCKA),13%
same,inhibition at 1 µM,MAP3K8 (COT),91%
same,inhibition at 1 µM,CHEK2 (CHK2),33%
same,inhibition at 1 µM,EGFR (ErbB1) G719S,11%
same,inhibition at 1 µM,PRKCE (PKC epsilon),10%
same,inhibition at 1 µM,SRPK2,6%
same,inhibition at 1 µM,ABL1 T315I,24%
same,inhibition at 1 µM,CAMK1D (CaMKI delta),8%
same,inhibition at 1 µM,YES1,61%
same,inhibition at 1 µM,PRKCG (PKC gamma),14%
same,inhibition at 1 µM,STK25 (YSK1),19%
same,inhibition at 1 µM,DCAMKL2 (DCK2),6%
